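In this assay, cells in 96-well plates receive the compound at five concentrations for 48 hours. Endpoints are linearly interpolated between the surrounding concentrations. At the GI50, growth is halved. TGI: total growth inhibition.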
Assays:
Experiment in all cases: inhibition of tumour cell growth, NCI panel, 48 h
OVCAR-8 ovarian = tested on: OVCAR-8 ovarian
K-562 leukemia = tested on: K-562 leukemia
LXFL 529 NSCLC = tested on: LXFL 529 NSCLC
SNB-75 CNS = tested on: SNB-75 CNS
HOP-92 NSCLC = tested on: HOP-92 NSCLC
ACHN renal = tested on: ACHN renal
OVCAR-5 ovarian = tested on: OVCAR-5 ovarian
DLD-1 colon = tested on: DLD-1 colon
HCT-15 colon = tested on: HCT-15 colon

| SMILES | TGI (OVCAR-8 ovarian) | TGI (K-562 leukemia) | TGI (LXFL 529 NSCLC) | TGI (SNB-75 CNS) | TGI (HOP-92 NSCLC) | TGI (ACHN renal) | TGI (OVCAR-5 ovarian) | TGI (DLD-1 colon) | TGI (HCT-15 colon) | GI50 (OVCAR-8 ovarian) | GI50 (K-562 leukemia) | GI50 (LXFL 529 NSCLC) | GI50 (SNB-75 CNS) | GI50 (HOP-92 NSCLC) | GI50 (ACHN renal) | GI50 (OVCAR-5 ovarian) | GI50 (DLD-1 colon) | GI50 (HCT-15 colon) |
| --- | --- | --- | --- | --- | --- | --- | --- | --- | --- | --- | --- | --- | --- | --- | --- | --- | --- | --- |
| COC(=O)C1=Cc2cc(OC)c(OC)c(OC)c2[C@H](c2cc(OC)c(OC)c(OC)c2)C1C(=O)OC (stereo not given in full) | > 100 µM | > 100 µM | > 100 µM | > 100 µM | 74.5 µM | > 100 µM | > 100 µM | > 100 µM | > 100 µM |  |  |  |  |  |  |  |  |  |
| CCOC(=O)C1SC(=Nc2cccc(Cl)c2C)N=C1C (stereo not given) | 61.9 µM | 89 µM | > 10 µM | 61.4 µM | 30.4 µM | 77.5 µM | 41.9 µM | > 10 µM | > 10 µM |  |  |  |  |  |  |  |  |  |
| CCN(CC)CC(C)(C)C(=O)/C=C/c1cccc(/C=C/C(=O)C(C)(C)CN(CC)CC)c1 | 1.47 µM | > 100 µM | 1.13 µM | 1.19 µM | 1.68 µM | 2.38 µM | 2.98 µM | 0.833 µM | 2.37 µM |  |  |  |  |  |  |  |  |  |
| Cc1cc([N+](=O)[O-])ccc1Sc1c2ccccc2nc2cc(Cl)ccc12 | 57.3 µM | > 100 µM | > 100 µM | 89.7 µM | 76.6 µM | > 100 µM | > 100 µM | > 100 µM | > 100 µM |  |  |  |  |  |  |  |  |  |
| Nc1c(-c2cn(Cc3ccccc3)c3ccccc23)[n+]([O-])c2ccccc2[n+]1[O-] | > 100 µM | > 100 µM | > 100 µM | 61.6 µM | 43.1 µM | > 100 µM | > 100 µM | > 100 µM | > 100 µM |  |  |  |  |  |  |  |  |  |
| O=[N+]([O-])c1ccc(C2CC(c3ccccc3Cl)=Nc3ccccc3S2)cc1 (stereo not given) | 5.59 µM | 6.35 µM | 11.8 µM | 44.1 µM | 29.5 µM | 42.9 µM | 62.7 µM | 7.24 µM | 10.9 µM |  |  |  |  |  |  |  |  |  |
| CC1=Nc2ccccc2NC(c2ccoc2)C1 (stereo not given) | > 100 µM | > 100 µM | > 100 µM | > 100 µM | > 100 µM | > 100 µM | > 100 µM | > 100 µM | > 100 µM |  |  |  |  |  |  |  |  |  |
| O=C(C=C1SCCS1)/C=C\c1ccc(Cl)cc1 | > 100 µM | > 100 µM | > 100 µM | > 100 µM | > 100 µM |  |  | > 100 µM |  |  |  |  |  |  |  |  |  |  |
| COc1c(C)cc(O)cc1C=O | > 100 µM | > 100 µM | > 100 µM | > 100 µM | > 100 µM | > 100 µM | > 100 µM | > 100 µM | > 100 µM |  |  |  |  |  |  |  |  |  |
| C#CCNC(=O)N(CC#C)N=O | > 100 µM | > 100 µM | > 100 µM | > 100 µM | > 100 µM | > 100 µM | > 100 µM | > 100 µM | > 100 µM |  |  |  |  |  |  |  |  |  |
| N.N.NCCCCCN.O=C([O-])CCl.O=C([O-])CCl.O=C([O-])CCl.O=C([O-])CCl.[Pt+4].[Pt+4] | > 100 µM | > 100 µM | 91.2 µM | 11.8 µM | 51.6 µM | 29.9 µM | 48.9 µM | > 100 µM | > 100 µM | 14 µM | 37.2 µM | 17.3 µM | 996 nM | 23.7 µM | 3.39 µM | 5.54 µM | 19 µM | 31.8 µM |
| O=S(=O)([O-])c1ccc(N=Cc2ccccc2[O-])cc1.O=S(=O)([O-])c1ccc(N=Cc2ccccc2[O-])cc1.[O]=[U+2]=[O] | > 100 µM | > 100 µM | > 100 µM | > 100 µM | > 100 µM | > 100 µM | > 100 µM | > 100 µM | > 100 µM | > 100 µM | > 100 µM | > 100 µM | > 100000 nM | > 100 µM | > 100 µM | > 100 µM | 67.9 µM | 31.3 µM |
| COc1ccccc1NC(=O)C1=C(C)NC(C)=C(C(=O)Nc2ccccc2OC)C1C1=CC=COC1 | 40.4 µM | 26 µM | 80 µM | > 100 µM | 83.8 µM | > 100 µM | > 100 µM | 45.3 µM | 15 µM |  |  |  |  |  |  |  |  |  |
| COc1ccc2c(c1)[n+]([O-])c(-c1ccc([N+](=O)[O-])cc1)c(N)[n+]2[O-] | > 100 µM | > 100 µM | > 100 µM | > 100 µM | > 100 µM | > 100 µM | > 100 µM | > 100 µM |  |  |  |  |  |  |  |  |  |  |
